Results reported in US20060287375A1 (priority 2003, published 2006).
Where two headings read alike, the source gives them in different places.

Tests used:
Pyricularia oryzae [1] = type: in vivo; conditions: rice seedlings (Aichi Asahi), wettable powder sprayed at 500 ppm active ingredient, 10 ml per pot; examined 5 days after inoculation
Pyricularia oryzae [2] = type: in vivo; conditions: paddy rice (Aichi Asahi), wettable powder on water surface, 1,000 g active ingredient per 10 ares; inoculated 10 days after application, examined 5 days after inoculation
Pyricularia oryzae [3] = type: in vivo; conditions: rice (Aichi Asahi), granule applied to seedling-raising box, 12 g active ingredient per box; inoculated 40 days after application, examined 6 days after inoculation
Septoria nodorum = test: Test for control effect on Septoria leaf spot of wheat; type: in vivo; conditions: wheat seedlings (Nohrin No. 61), wettable powder at 500 ppm, 10 ml per pot; examined 10 days after inoculation
Source text: Test for Control Effect on Septoria Leaf Spot of Wheat
In each of plastic pots of 6 cm in diameter were sown 10 wheat seeds (variety: Nohrin No. 61). They were allowed to germinate in a greenhouse. […] After air-drying, the seedlings were inoculated with pycnospores of Septoria nodorum and the pot was placed in a greenhouse. After 10 days from the inoculation, the total diseased area of all the first leaves in the pot was examined.

[4] = system: Pseudoperonospora cubensis; conditions: cucumber seedlings (sagami hanjiro), wettable powder at 500 ppm, 15 ml per pot; examined 7 days later
Procedure: 10 cucumber seeds (variety: sagami hanjiro) were sown in each of vinyl chloride resin made pots of 9 cm×9 cm and were allowed to germinate in a greenhouse for 7 days. The resulting cucumber young seedlings which reached a cotyledon stage were used as a sample plant. […] The plant was air-dried and inoculated, by spraying, with a suspension of conidia of Pseudoperonospora cubensis. Immediately, the pot was placed in a wet house of 20° C. for 24 hours. Then, the pot was transferred into a greenhouse. 7 days later, the total diseased area of all the cotyledons in the pot was examined.

Erysiphe graminis = test: Test for control effect on powdery mildew of wheat; type: in vivo; conditions: wheat seedlings (Nohrin No. 61), wettable powder at 500 ppm, 10 ml per pot; inoculated 7 days after application, examined 8 days after inoculation
Source text: Test for Control Effect on Powdery Mildew of Wheat
In each of plasic pots of 6 cm in diameter were sown 10 wheat seeds (variety: Nohrin No. 61). They were allowed to germinate in a greenhouse. […] After 7 days from the application, the seedlings were inoculated, by spraying, with conidia of Erysiphe graminis. After 8 days from the inoculation, the total infected area of all the first leaves in the pot was examined.

| Structure (SMILES) | Evaluation (preventive value, number of lesions of the fourth leaf) (Pyricularia oryzae [1]) | Evaluation (preventive value, number of lesions of the upper young leaf) (Pyricularia oryzae [2]) | Evaluation (total diseased area of all the first leaves) (Septoria nodorum) | further results |
| --- | --- | --- | --- | --- |
| CCOC(=O)N1C(=S)c2ccccc2S1(=O)=O [Compound No. 5, 2-ethoxycarbonyl-1,2-benzisothiazoline-3-thioxo-1,1-dioxide] | B (Less than 100 to 80.0 or more) | B (Less than 100 to 80.0 or more) | B (Less than 25% of untreated plot) | Evaluation (preventive value, number of lesions of the upper young leaf) (Pyricularia oryzae [3]): B (Less than 100 to 80.0 or more) |
| CC(C)N1C(=S)c2ccccc2S1(=O)=O [Compound No. 11] | – | B (Less than 100 to 80.0 or more) | – | – |
| O=S1(=O)c2ccccc2C(=S)N1CC=CCl [Compound No. 50] | – | – | B (Less than 25% of untreated plot) | Evaluation (total diseased area of all the cotyledons) [4]: B (Less than 25% of untreated plot) |
| C=CCOC1=NS(=O)(=O)c2ccccc21 [Probenazole, reference compound] | – | B (Less than 100 to 80.0 or more) | – | Evaluation (preventive value, number of lesions of the upper young leaf) (Pyricularia oryzae [3]): B (Less than 100 to 80.0 or more) |
| COCN1C(=S)c2ccccc2S1(=O)=O [compound 2] | B (Less than 100 to 80.0 or more) | B (Less than 100 to 80.0 or more) | – | Evaluation (total diseased area of all the cotyledons) [4]: B (Less than 25% of untreated plot); Evaluation (preventive value, number of lesions of the upper young leaf) (Pyricularia oryzae [3]): B (Less than 100 to 80.0 or more); Evaluation (total infected area of all the first leaves) (Erysiphe graminis): B (Less than 25% of untreated plot) |
| CCOCN1C(=S)c2ccccc2S1(=O)=O [compound 3, 2-ethoxymethyl-1,2-benzisothiazoline-3-thioxo-1,1-dioxide] | B (Less than 100 to 80.0 or more) | B (Less than 100 to 80.0 or more) | – | Evaluation (preventive value, number of lesions of the upper young leaf) (Pyricularia oryzae [3]): B (Less than 100 to 80.0 or more) |
| CCCOC(=O)N1C(=S)c2ccccc2S1(=O)=O [compound 6] | A (100) | B (Less than 100 to 80.0 or more) | B (Less than 25% of untreated plot) | Evaluation (total diseased area of all the cotyledons) [4]: B (Less than 25% of untreated plot) |
| C=CCOC(=O)N1C(=S)c2ccccc2S1(=O)=O [compound 7] | B (Less than 100 to 80.0 or more) | B (Less than 100 to 80.0 or more) | B (Less than 25% of untreated plot) | – |
| C#CCOC(=O)N1C(=S)c2ccccc2S1(=O)=O [compound 8] | B (Less than 100 to 80.0 or more) | B (Less than 100 to 80.0 or more) | – | Evaluation (total infected area of all the first leaves) (Erysiphe graminis): B (Less than 25% of untreated plot) |
| CC(C)COC(=O)N1C(=S)c2ccccc2S1(=O)=O [compound 9] | B (Less than 100 to 80.0 or more) | B (Less than 100 to 80.0 or more) | B (Less than 25% of untreated plot) | Evaluation (total diseased area of all the cotyledons) [4]: B (Less than 25% of untreated plot) |
| O=C(Oc1ccc(Cl)cc1)N1C(=S)c2ccccc2S1(=O)=O [compound 10] | – | B (Less than 100 to 80.0 or more) | B (Less than 25% of untreated plot) | – |
| CSCN1C(=S)c2ccccc2S1(=O)=O [compound 17] | – | B (Less than 100 to 80.0 or more) | – | – |
| N#CCN1C(=S)c2ccccc2S1(=O)=O [compound 19] | – | B (Less than 100 to 80.0 or more) | – | – |
| O=[N+]([O-])CN1C(=S)c2ccccc2S1(=O)=O [compound 20] | – | B (Less than 100 to 80.0 or more) | – | – |
| CC(=O)N1C(=S)c2ccccc2S1(=O)=O [compound 22] | – | B (Less than 100 to 80.0 or more) | – | – |
| COC(=O)N1C(=S)c2ccccc2S1(=O)=O [compound 23] | – | B (Less than 100 to 80.0 or more) | – | – |
| CC(C)OC(=O)N1C(=S)c2ccccc2S1(=O)=O [compound 24] | – | B (Less than 100 to 80.0 or more) | – | – |

| Structure (SMILES) | Evaluation (preventive value, number of lesions of the fourth leaf) (Pyricularia oryzae [1]) | Evaluation (preventive value, number of lesions of the upper young leaf) (Pyricularia oryzae [2]) | Evaluation (total diseased area of all the first leaves) (Septoria nodorum) | further results |
| --- | --- | --- | --- | --- |
| O=C(Oc1ccccc1)N1C(=S)c2ccccc2S1(=O)=O [compound 25] | – | B (Less than 100 to 80.0 or more) | – | – |
| CCC(=O)N1C(=S)c2ccccc2S1(=O)=O [compound 27] | B (Less than 100 to 80.0 or more) | – | – | – |
| O=S1(=O)c2ccccc2C(=S)N1C1CCCC1 [compound 29] | – | – | B (Less than 25% of untreated plot) | – |
| O=C(OCCCl)N1C(=S)c2ccccc2S1(=O)=O [compound 30] | B (Less than 100 to 80.0 or more) | – | B (Less than 25% of untreated plot) | – |
| CCCCOC(=O)N1C(=S)c2ccccc2S1(=O)=O [compound 31] | – | B (Less than 100 to 80.0 or more) | B (Less than 25% of untreated plot) | – |
| O=[N+]([O-])CCN1C(=S)c2ccccc2S1(=O)=O [compound 39] | B (Less than 100 to 80.0 or more) | B (Less than 100 to 80.0 or more) | B (Less than 25% of untreated plot) | – |
| CC(C[N+](=O)[O-])N1C(=S)c2ccccc2S1(=O)=O (stereo not drawn) [compound 40] | B (Less than 100 to 80.0 or more) | B (Less than 100 to 80.0 or more) | B (Less than 25% of untreated plot) | – |
| CCOC(=O)C(C(=O)OCC)N1C(=S)c2ccccc2S1(=O)=O [compound 42] | – | – | – | Evaluation (total diseased area of all the cotyledons) [4]: B (Less than 25% of untreated plot) |
| CON1C(=S)c2ccccc2S1(=O)=O [compound 43, 2-methoxy-1,2-benzisothiazoline-3-thioxo-1,1-dioxide] | B (Less than 100 to 80.0 or more) | B (Less than 100 to 80.0 or more) | – | – |
| O=S1(=O)c2ccccc2C(=S)N1CBr [compound 44, 2-bromomethyl-1,2-benzisothiazoline-3-thioxo-1,1-dioxide] | B (Less than 100 to 80.0 or more) | B (Less than 100 to 80.0 or more) | B (Less than 25% of untreated plot) | – |
| O=S1(=O)c2ccccc2C(=S)N1CCl [compound 45] | A (100) | B (Less than 100 to 80.0 or more) | – | – |
| O=C(OCN1C(=S)c2ccccc2S1(=O)=O)c1ccccc1 [compound 46, 2-benzoyloxymethyl-1,2-benzisothiazoline-3-thioxo-1,1-dioxide] | B (Less than 100 to 80.0 or more) | B (Less than 100 to 80.0 or more) | – | – |
| O=C(OCN1C(=S)c2ccccc2S1(=O)=O)c1cc(Cl)nc(Cl)c1 [compound 47] | – | B (Less than 100 to 80.0 or more) | – | Evaluation (preventive value, number of lesions of the upper young leaf) (Pyricularia oryzae [3]): B (Less than 100 to 80.0 or more) |
| N#CSCN1C(=S)c2ccccc2S1(=O)=O [compound 48] | B (Less than 100 to 80.0 or more) | – | B (Less than 25% of untreated plot) | Evaluation (total diseased area of all the cotyledons) [4]: B (Less than 25% of untreated plot) |
| Cc1nnsc1C(=O)OCN1C(=S)c2ccccc2S1(=O)=O [compound 49] | B (Less than 100 to 80.0 or more) | – | – | – |
| COCCN1C(=S)c2ccccc2S1(=O)=O [compound 53] | – | – | – | Evaluation (total diseased area of all the cotyledons) [4]: B (Less than 25% of untreated plot) |
